Experimental data from ChEMBL document CHEMBL4177723, “Histone H3 peptides incorporating modified lysine residues as lysine-specific demethylase 1 inhibitors” (Bioorg Med Chem Lett, 2018).

Legend:
[1] = target: T1, Amine oxidase [flavin-containing] B (Homo sapiens, UniProt P27338)
T1 sequence (P27338 whole entry): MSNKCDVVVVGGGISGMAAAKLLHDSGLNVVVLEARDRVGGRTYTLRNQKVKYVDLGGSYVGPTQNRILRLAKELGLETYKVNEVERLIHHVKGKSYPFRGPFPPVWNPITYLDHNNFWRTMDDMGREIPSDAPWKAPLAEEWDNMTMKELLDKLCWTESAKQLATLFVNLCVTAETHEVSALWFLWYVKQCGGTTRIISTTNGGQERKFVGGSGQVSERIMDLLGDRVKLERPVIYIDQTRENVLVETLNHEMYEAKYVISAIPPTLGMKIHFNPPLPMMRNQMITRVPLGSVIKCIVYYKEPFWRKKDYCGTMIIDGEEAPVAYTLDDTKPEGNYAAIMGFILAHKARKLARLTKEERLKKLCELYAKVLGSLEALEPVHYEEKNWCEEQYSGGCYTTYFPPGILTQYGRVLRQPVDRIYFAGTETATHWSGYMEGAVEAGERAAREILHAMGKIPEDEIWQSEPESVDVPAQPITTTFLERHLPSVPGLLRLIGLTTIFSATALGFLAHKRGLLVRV

[2] = target: T2, Amine oxidase [flavin-containing] A (Homo sapiens, UniProt P21397)
T2 sequence (P21397 whole entry): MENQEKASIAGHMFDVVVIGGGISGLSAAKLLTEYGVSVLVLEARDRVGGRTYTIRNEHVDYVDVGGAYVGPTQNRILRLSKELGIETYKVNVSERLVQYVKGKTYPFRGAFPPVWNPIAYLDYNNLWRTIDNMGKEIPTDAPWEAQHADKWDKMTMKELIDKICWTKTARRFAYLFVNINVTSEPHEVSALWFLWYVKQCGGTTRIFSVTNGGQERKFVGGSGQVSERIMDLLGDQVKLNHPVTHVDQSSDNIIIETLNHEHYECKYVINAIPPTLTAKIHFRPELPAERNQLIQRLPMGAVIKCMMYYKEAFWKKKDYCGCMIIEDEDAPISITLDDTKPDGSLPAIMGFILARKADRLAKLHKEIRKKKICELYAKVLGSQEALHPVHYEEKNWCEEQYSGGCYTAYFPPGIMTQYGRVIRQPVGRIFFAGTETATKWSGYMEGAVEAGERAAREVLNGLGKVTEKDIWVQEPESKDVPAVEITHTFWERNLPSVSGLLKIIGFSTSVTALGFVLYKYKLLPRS

[3] = target: Lysine-specific histone demethylase 1A (Homo sapiens, UniProt O60341)

## C[C@H](N)C(=O)N[C@@H](CCCNC(=N)N)C(=O)N[C@H](C(=O)N[C@@H](CCCCN[C@@H]1C[C@H]1c1ccccc1)C(=O)N[C@@H](CCC(N)=O)C(=O)N[C@H](C(=O)N[C@@H](C)C(=O)N[C@@H](CCCNC(=N)N)C(=O)N[C@@H](CCCCN)C(=O)N[C@@H](CO)C(=O)N[C@H](C(=O)O)[C@@H](C)O)[C@@H](C)O)[C@@H](C)O
[1]
  IC50: > 10 µM
[2]
  IC50: > 10 µM
[3]
  IC50: 0.154 µM
